In patent EP2712863B1, “Novel inhibitors of bacterial biofilms and related methods” (Sequoia Sciences, Inc., priority 2012, dated 2014):
Values after ≈ are worked out from the molar mass of the structure shown.

Columns and labels:
[1] = tested on: E. coli; assay: Biofilm growth assay (spreading biofilm on semi-solid agar); format: cell-based; conditions: Escherichia coli; Table 3; concentration that reduces the area of the spreading biofilm by >= 85%; read-out: E. coli
How it was run: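 Spreading (swarming) biofilm on semi-solid agar: E. coli on LB with 0.6% agar and 0.5% glucose; P. aeruginosa on M8 agar with 0.2% glucose, 100 µM CaCl2, 1 mM MgSO4, 0.5% Casamino acids. Compound in medium; 5 µL overnight culture spotted centrally, 37°C overnight. Value: concentration (µg/ml) giving ≥85% reduction in spread area versus negative control.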

[2] = tested on: P. aeruginosa; assay: as above; format: cell-based; conditions: Pseudomonas aeruginosa; Table 3; concentration that reduces the area of the spreading biofilm by >= 85%; read-out: P. aeruginosa

Row | SMILES | IC85 [1] [µg/mL] | IC85 [2] [µg/mL]
1 | CN1CCN(Cc2occc2C2=C3[C@@H]4CC(C)(C)CC[C@]4(C(=O)O)CC[C@@]3(C)[C@]3(C)CC[C@H]4C(C)(C)c5n[nH]c(N)c5C[C@]4(C)C3C2)CC1 (stereo partly drawn) [Compound 36, (4aS,6aS,6bR,8aR,13aR,15bS)-12-Amino-2,2,6a,6b,9,9,13a-heptamethyl-15-(2-((4-methylpiperazin-1-yl)methyl)furan-3-yl)-2,3,4,4a,5,6,6a,6b,7,8,8a,9,11,13,13a,13b,14,15b-octadecahydro-1H-chryseno[1,2-f]indazole-4a-carboxylic acid] | 2 (≈ 2.98 µM) | > 1
2 | CC1(C)CC[C@]2(C(=O)O)CC[C@]3(C)C(=C(c4ccoc4CN4CCCC4)CC4[C@@]5(C)Cc6c(n[nH]c6N)C(C)(C)C5CC[C@]43C)C2C1 (stereo partly drawn) [Compound 37, (4aS,6aS,6bR,13aR)-12-Amino-2,2,6a,6b,9,9,13a-heptamethyl-15-(2-(pyrrolidin-1-ylmethyl)furan-3-yl)-2,3,4,4a,5,6,6a,6b,7,8,8a,9,11,13,13a,13b,14,15b-octadecahydro-1H-chryseno[1,2-f]indazole-4a-carboxylic acid] | 1 (≈ 1.56 µM) | > 1
3 | CC1(C)CC[C@]2(C(=O)O)CC[C@]3(C)C(=C(c4coc(CN5CCCC5)c4)CC4[C@@]5(C)Cc6c(n[nH]c6N)C(C)(C)C5CC[C@]43C)C2C1 (stereo partly drawn) [Compound 38, (4aS,6aS,6bR,13aR)-12-Amino-2,2,6a,6b,9,9,13a-heptamethyl-15-(5-(pyrrolidin-1-ylmethyl)furan-3-yl)-2,3,4,4a,5,6,6a,6b,7,8,8a,9,11,13,13a,13b,14,15b-octadecahydro-1H-chryseno[1,2-f]indazole-4a-carboxylic acid] | 2 (≈ 3.11 µM) | 1 (≈ 1.56 µM)
4 | CC1(C)CC[C@]2(C(=O)O)CC[C@]3(C)C(=C(c4coc(CN5CCNCC5)c4)CC4[C@@]5(C)Cc6c(n[nH]c6N)C(C)(C)C5CC[C@]43C)C2C1 (stereo partly drawn) [Compound 39, (4aS,6aS,6bR,13aR)-12-Amino-2,2,6a,6b,9,9,13a-heptamethyl-15-(5-(piperazin-1-ylmethyl)furan-3-yl)-2,3,4,4a,5,6,6a,6b,7,8,8a,9,11,13,13a,13b,14,15b-octadecahydro-1H-chryseno[1,2-f]indazole-4a-carboxylic acid] | 2 (≈ 3.04 µM) | 1 (≈ 1.52 µM)
5 | CC1(C)CC[C@]2(C(=O)O)CC[C@]3(C)C(=C(c4coc(CN5CCOCC5)c4)CC4[C@@]5(C)Cc6c(n[nH]c6N)C(C)(C)[C@@H]5CC[C@]43C)[C@@H]2C1 (stereo partly drawn) [Compound 40, (4aS,6aS,6bR,8aR,13aR,15bS)-12-Amino-2,2,6a,6b,9,9,13a-heptamethyl-15-(5-(morpholinomethyl)furan-3-yl)-2,3,4,4a,5,6,6a,6b,7,8,8a,9,11,13,13a,13b,14,15b-octadecahydro-1H-chryseno[1,2-f]indazole-4a-carboxylic acid] | 2 (≈ 3.04 µM) | 0.5 (≈ 0.759 µM)
6 | CC1(C)CC[C@]2(C(=O)O)CC[C@]3(C)C(=C(c4ccc(N)nc4)CC4[C@@]5(C)Cc6c(n[nH]c6N)C(C)(C)[C@@H]5CC[C@]43C)[C@@H]2C1 (stereo partly drawn) [Compound 41, (4aS,6aS,6bR,8aR,13aR,15bS)-12-Amino-15-(6-aminopyridin-3-yl)-2,2,6a,6b,9,9,13a-heptamethyl-2,3,4,4a,5,6,6a,6b,7,8,8a,9,11,13,13a,13b,14,15b-octadecahydro-1H-chryseno[1,2-f]indazole-4a-carboxylic acid] | 2 (≈ 3.41 µM) | 1 (≈ 1.71 µM)
7 | COc1ccc(C2=C3[C@@H]4CC(C)(C)CC[C@]4(C(=O)O)CC[C@@]3(C)[C@]3(C)CC[C@H]4C(C)(C)c5n[nH]c(N)c5C[C@]4(C)C3C2)cn1 (stereo partly drawn) [Compound 42, (4aS,6aS,6bR,8aR,13aR,15bS)-12-Amino-15-(6-methoxypyridin-3-yl)-2,2,6a,6b,9,9,13a-heptamethyl-2,3,4,4a,5,6,6a,6b,7,8,8a,9,11,13,13a,13b,14,15b-octadecahydro-1H-chryseno[1,2-f]indazole-4a-carboxylic acid] | 1 (≈ 1.66 µM) | 0.25 (≈ 0.416 µM)
8 | CNc1ccc(C2=C3[C@@H]4CC(C)(C)CC[C@]4(C(=O)O)CC[C@@]3(C)[C@]3(C)CC[C@H]4C(C)(C)c5n[nH]c(N)c5C[C@]4(C)C3C2)cn1 (stereo partly drawn) [Compound 43, (4aS,6aS,6bR,8aR,13aR,15bS)-12-Amino-2,2,6a,6b,9,9,13a-heptamethyl-15-(6-(methylamino)pyridin-3-yl)-2,3,4,4a,5,6,6a,6b,7,8,8a,9,11,13,13a,13b,14,15b-octadecahydro-1H-chryseno[1,2-f]indazole-4a-carboxylic acid] | 1 (≈ 1.67 µM) | 1 (≈ 1.67 µM)
9 | CN(C)c1ccc(C2=C3[C@@H]4CC(C)(C)CC[C@]4(C(=O)O)CC[C@@]3(C)[C@]3(C)CC[C@H]4C(C)(C)c5n[nH]c(N)c5C[C@]4(C)C3C2)cn1 (stereo partly drawn) [Compound 44, (4aS,6aS,6bR,8aR,13aR,15bS)-12-Amino-15-(6-(dimethylamino)pyridin-3-yl)-2,2,6a,6b,9,9,13a-heptamethyl-2,3,4,4a,5,6,6a,6b,7,8,8a,9,11,13,13a,13b,14,15b-octadecahydro-1H-chryseno[1,2-f]indazole-4a-carboxylic acid] | 2 (≈ 3.26 µM) | 0.5 (≈ 0.814 µM)
10 | CC1(C)CC[C@]2(C(=O)O)CC[C@]3(C)C(=C(c4ccc(N5CCCC5)nc4)CC4[C@@]5(C)Cc6c(n[nH]c6N)C(C)(C)C5CC[C@]43C)C2C1 (stereo partly drawn) [Compound 45, (4aS,6aS,6bR,13aR)-12-Amino-2,2,6a,6b,9,9,13a-heptamethyl-15-(6-(pyrrolidin-1-yl)pyridin-3-yl)-2,3,4,4a,5,6,6a,6b,7,8,8a,9,11,13,13a,13b,14,15b-octadecahydro-1H-chryseno[1,2-f]indazole-4a-carboxylic acid] | 1 (≈ 1.56 µM) | 0.5 (≈ 0.781 µM)
11 | CC1(C)CC[C@]2(C(=O)O)CC[C@]3(C)C(=C(c4cccc5cnccc45)CC4[C@@]5(C)Cc6c(n[nH]c6N)C(C)(C)C5CC[C@]43C)C2C1 (stereo partly drawn) [Compound 46, (4aS,6aS,6bR,13aR)-12-Amino-15-(isoquinolin-5-yl)-2,2,6a,6b,9,9,13a-heptamethyl-2,3,4,4a,5,6,6a,6b,7,8,8a,9,11,13,13a,13b,14,15b-octadecahydro-1H-chryseno[1,2-f]indazole-4a-carboxylic acid] | 1 (≈ 1.61 µM) | 0.5 (≈ 0.805 µM)
12 | CC1(C)CC[C@]2(C(=O)O)CC[C@]3(C)C(=C(c4cccc5c4CCNC5)CC4[C@@]5(C)Cc6c(n[nH]c6N)C(C)(C)C5CC[C@]43C)C2C1 (stereo partly drawn) [Compound 47, (4aS,6aS,6bR,13aR)-12-Amino-2,2,6a,6b,9,9,13a-heptamethyl-15-(1,2,3,4-tetrahydroisoquinolin-5-yl)-2,3,4,4a,5,6,6a,6b,7,8,8a,9,11,13,13a,13b,14,15b-octadecahydro-1H-chryseno[1,2-f]indazole-4a-carboxylic acid] | 1 (≈ 1.6 µM) | 0.5 (≈ 0.8 µM)
13 | CC1(C)CC[C@]2(C(=O)O)CC[C@]3(C)C(=C(c4cccc5[nH]ccc45)CC4[C@@]5(C)Cc6c(n[nH]c6N)C(C)(C)C5CC[C@]43C)C2C1 (stereo partly drawn) [Compound 48, (4aS,6aS,6bR,13aR)-12-Amino-15-(1H-indol-4-yl)-2,2,6a,6b,9,9,13a-heptamethyl-2,3,4,4a,5,6,6a,6b,7,8,8a,9,11,13,13a,13b,14,15b-octadecahydro-1H-chryseno[1,2-f]indazole-4a-carboxylic acid] | 1 (≈ 1.64 µM) | 0.5 (≈ 0.821 µM)
14 | CC1(C)CC[C@]2(C(=O)O)CC[C@]3(C)C(=C(c4ccc5[nH]ccc5c4)CC4[C@@]5(C)Cc6c(n[nH]c6N)C(C)(C)C5CC[C@]43C)C2C1 (stereo partly drawn) [Compound 49, (4aS,6aS,6bR,13aR)-12-Amino-15-(1H-indol-5-yl)-2,2,6a,6b,9,9,13a-heptamethyl-2,3,4,4a,5,6,6a,6b,7,8,8a,9,11,13,13a,13b,14,15b-octadecahydro-1H-chryseno[1,2-f]indazole-4a-carboxylic acid] | > 1 | 0.5 (≈ 0.821 µM)
15 | CC1(C)CC[C@]2(C(=O)O)CC[C@]3(C)C(=C(c4ccc(N5CCNCC5)cc4)CC4[C@@]5(C)Cc6c(n[nH]c6N)C(C)(C)C5CC[C@]43C)C2C1 (stereo partly drawn) [Compound 50, (4aS,6aS,6bR,13aR)-12-Amino-2,2,6a,6b,9,9,13a-heptamethyl-15-(4-(piperazin-1-yl)phenyl)-2,3,4,4a,5,6,6a,6b,7,8,8a,9,11,13,13a,13b,14,15b-octadecahydro-1H-chryseno[1,2-f]indazole-4a-carboxylic acid] | 1 (≈ 1.53 µM) | 2 (≈ 3.06 µM)
16 | CC1(C)CC[C@]2(C(=O)O)CC[C@]3(C)C(=C(c4ccc(N5CCOCC5)cc4)CC4[C@@]5(C)Cc6c(n[nH]c6N)C(C)(C)C5CC[C@]43C)C2C1 (stereo partly drawn) [Compound 51, (4aS,6aS,6bR,13aR)-12-Amino-2,2,6a,6b,9,9,13a-heptamethyl-15-(4-morpholinophenyl)-2,3,4,4a,5,6,6a,6b,7,8,8a,9,11,13,13a,13b,14,15b-octadecahydro-1H-chryseno[1,2-f]indazole-4a-carboxylic acid] | 2 (≈ 3.05 µM) | 0.5 (≈ 0.763 µM)
17 | CC1(C)CC[C@]2(C(=O)O)CC[C@]3(C)C(=C(c4ccc(CN5CCOCC5)cc4)CC4[C@@]5(C)Cc6c(n[nH]c6N)C(C)(C)C5CC[C@]43C)C2C1 (stereo partly drawn) [Compound 52, (4aS,6aS,6bR,13aR)-12-Amino-2,2,6a,6b,9,9,13a-heptamethyl-15-(4-(morpholinomethyl)phenyl)-2,3,4,4a,5,6,6a,6b,7,8,8a,9,11,13,13a,13b,14,15b-octadecahydro-1H-chryseno[1,2-f]indazole-4a-carboxylic acid] | 2 (≈ 2.99 µM) | 1 (≈ 1.49 µM)
18 | CN1CCN(c2ccc(C3=C4C5CC(C)(C)CC[C@]5(C(=O)O)CC[C@@]4(C)[C@]4(C)CCC5C(C)(C)c6n[nH]c(N)c6C[C@]5(C)C4C3)cc2)CC1 (stereo partly drawn) [Compound 53, (4aS,6aS,6bR,13aR)-12-Amino-2,2,6a,6b,9,9,13a-heptamethyl-15-(4-(4-methylpiperazin-1-yl)phenyl)-2,3,4,4a,5,6,6a,6b,7,8,8a,9,11,13,13a,13b,14,15b-octadecahydro-1H-chryseno[1,2-f]indazole-4a-carboxylic acid] | 2 (≈ 2.99 µM) | 0.5 (≈ 0.749 µM)
